Among the data in ChEMBL document CHEMBL5291721, “A preclinical secondary pharmacology resource illuminates target-adverse drug reaction associations of marketed drugs” (Nat Commun, 2023) are AC50 values, retold here.

Assay [1] concerns the target D(3) dopamine receptor (Homo sapiens, UniProt P35462).
Assay [2] concerns the target Sodium-dependent noradrenaline transporter (Homo sapiens, UniProt P23975).
Assay [3] deals with Muscarinic acetylcholine receptor M3 (Homo sapiens, UniProt P20309).
Assay [4] deals with T1, Amine oxidase [flavin-containing] A (Homo sapiens, UniProt P21397).
T1 sequence (P21397 whole entry): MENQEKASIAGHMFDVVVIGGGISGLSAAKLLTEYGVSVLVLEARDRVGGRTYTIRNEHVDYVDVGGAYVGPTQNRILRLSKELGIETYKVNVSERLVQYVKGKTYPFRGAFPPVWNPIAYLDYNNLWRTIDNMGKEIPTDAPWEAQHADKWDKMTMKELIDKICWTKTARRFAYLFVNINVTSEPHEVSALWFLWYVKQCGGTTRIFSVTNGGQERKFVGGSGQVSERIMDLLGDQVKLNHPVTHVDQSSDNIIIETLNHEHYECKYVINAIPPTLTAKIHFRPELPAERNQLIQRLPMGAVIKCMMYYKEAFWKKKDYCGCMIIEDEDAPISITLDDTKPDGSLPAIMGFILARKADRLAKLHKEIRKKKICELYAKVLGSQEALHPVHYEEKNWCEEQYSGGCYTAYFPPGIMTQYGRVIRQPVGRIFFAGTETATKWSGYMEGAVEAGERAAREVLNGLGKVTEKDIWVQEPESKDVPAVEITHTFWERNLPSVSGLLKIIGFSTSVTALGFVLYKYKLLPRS
The assay is classed as functional.

Assay [5] deals with Histamine H3 receptor (Homo sapiens, UniProt Q9Y5N1).
Histamine H3 receptor, sequence (Q9Y5N1 whole entry): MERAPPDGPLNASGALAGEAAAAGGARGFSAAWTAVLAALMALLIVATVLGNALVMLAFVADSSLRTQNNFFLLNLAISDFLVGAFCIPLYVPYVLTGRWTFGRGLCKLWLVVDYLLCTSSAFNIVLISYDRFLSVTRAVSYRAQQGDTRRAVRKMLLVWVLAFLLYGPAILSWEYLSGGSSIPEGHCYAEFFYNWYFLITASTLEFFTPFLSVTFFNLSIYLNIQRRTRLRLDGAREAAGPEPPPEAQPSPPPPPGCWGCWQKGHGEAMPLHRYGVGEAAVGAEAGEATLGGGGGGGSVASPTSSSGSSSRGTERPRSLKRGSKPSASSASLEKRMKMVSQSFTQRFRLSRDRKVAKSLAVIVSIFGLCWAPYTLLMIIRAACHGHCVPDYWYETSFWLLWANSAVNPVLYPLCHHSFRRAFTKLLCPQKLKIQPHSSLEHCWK
Assay [6] concerns the target T2, Gastrin/cholecystokinin type B receptor (Homo sapiens, UniProt P32239).
T2 sequence (P32239 whole entry): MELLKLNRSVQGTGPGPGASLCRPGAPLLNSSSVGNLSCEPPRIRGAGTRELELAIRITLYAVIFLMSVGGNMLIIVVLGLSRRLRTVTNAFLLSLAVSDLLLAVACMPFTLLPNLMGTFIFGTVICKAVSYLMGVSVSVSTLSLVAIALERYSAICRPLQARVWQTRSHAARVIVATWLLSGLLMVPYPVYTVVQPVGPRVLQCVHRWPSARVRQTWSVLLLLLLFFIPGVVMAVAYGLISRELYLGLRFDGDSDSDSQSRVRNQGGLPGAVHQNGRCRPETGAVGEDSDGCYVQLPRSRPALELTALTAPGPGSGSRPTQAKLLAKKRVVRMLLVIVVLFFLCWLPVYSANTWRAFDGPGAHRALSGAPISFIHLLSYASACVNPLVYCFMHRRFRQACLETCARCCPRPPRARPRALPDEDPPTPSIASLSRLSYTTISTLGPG

Assay [7] deals with Cannabinoid receptor 1 (Homo sapiens, UniProt P21554). The assay is classed as functional, cell-based.
Cannabinoid receptor 1, sequence (P21554 whole entry): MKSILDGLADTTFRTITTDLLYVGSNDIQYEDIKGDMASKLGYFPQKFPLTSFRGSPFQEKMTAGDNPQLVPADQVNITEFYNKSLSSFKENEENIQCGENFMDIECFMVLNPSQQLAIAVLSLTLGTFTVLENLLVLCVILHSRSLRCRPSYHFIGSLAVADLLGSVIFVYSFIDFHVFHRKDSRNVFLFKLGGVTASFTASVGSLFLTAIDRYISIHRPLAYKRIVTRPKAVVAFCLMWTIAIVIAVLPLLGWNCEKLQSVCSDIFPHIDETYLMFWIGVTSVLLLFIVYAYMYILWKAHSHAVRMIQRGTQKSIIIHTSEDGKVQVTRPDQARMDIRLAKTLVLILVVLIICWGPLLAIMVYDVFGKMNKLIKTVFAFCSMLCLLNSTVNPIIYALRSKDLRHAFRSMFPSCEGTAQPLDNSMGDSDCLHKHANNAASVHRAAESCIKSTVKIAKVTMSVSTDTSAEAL
Assay [8] deals with Histamine H1 receptor (Homo sapiens, UniProt P35367).
Histamine H1 receptor, sequence (P35367 whole entry): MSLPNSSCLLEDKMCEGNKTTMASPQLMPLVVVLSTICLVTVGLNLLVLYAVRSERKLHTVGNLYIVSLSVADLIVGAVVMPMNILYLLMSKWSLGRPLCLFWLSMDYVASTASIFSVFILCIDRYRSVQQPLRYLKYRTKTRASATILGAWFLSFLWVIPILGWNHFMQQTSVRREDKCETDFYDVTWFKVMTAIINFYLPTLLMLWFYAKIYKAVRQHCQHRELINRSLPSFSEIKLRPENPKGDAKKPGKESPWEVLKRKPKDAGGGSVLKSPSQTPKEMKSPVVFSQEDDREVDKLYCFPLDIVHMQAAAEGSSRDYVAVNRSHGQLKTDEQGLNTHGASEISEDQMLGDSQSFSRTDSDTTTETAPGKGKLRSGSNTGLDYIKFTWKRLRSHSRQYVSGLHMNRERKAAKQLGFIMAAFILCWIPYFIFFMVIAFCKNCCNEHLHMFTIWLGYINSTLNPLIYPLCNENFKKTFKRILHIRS
The target of assay [9] is T3, Alpha-2A adrenergic receptor (Homo sapiens, UniProt P08913).
T3 sequence (P08913 whole entry): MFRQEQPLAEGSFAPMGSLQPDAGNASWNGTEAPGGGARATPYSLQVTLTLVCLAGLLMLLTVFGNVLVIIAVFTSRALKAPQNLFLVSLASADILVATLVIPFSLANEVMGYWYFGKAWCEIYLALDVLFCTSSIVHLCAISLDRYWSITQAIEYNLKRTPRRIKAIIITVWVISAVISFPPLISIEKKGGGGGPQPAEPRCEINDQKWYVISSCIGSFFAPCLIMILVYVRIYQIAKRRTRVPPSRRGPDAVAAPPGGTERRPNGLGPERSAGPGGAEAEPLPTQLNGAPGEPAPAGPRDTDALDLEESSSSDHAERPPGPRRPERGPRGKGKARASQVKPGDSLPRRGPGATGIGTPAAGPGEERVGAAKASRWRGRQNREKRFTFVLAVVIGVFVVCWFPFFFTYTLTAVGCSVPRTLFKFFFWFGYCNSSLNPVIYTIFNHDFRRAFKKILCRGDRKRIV
The assay is classed as functional, cell-based.

The target of assay [10] is Melanocortin receptor 4 (Homo sapiens, UniProt P32245).
Melanocortin receptor 4, sequence (P32245 whole entry): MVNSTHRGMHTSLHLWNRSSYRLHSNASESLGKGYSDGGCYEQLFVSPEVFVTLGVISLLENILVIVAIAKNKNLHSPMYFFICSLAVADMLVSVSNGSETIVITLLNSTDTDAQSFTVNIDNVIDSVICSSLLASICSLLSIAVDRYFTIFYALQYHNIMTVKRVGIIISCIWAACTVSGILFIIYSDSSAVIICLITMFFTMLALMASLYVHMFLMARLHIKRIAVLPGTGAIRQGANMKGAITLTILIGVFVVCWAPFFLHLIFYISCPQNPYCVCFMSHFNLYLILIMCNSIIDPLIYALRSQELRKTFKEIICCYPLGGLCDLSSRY
The target in assay [11] is T4, 5-hydroxytryptamine receptor 2C (Homo sapiens, UniProt P28335).
T4 sequence (P28335 whole entry): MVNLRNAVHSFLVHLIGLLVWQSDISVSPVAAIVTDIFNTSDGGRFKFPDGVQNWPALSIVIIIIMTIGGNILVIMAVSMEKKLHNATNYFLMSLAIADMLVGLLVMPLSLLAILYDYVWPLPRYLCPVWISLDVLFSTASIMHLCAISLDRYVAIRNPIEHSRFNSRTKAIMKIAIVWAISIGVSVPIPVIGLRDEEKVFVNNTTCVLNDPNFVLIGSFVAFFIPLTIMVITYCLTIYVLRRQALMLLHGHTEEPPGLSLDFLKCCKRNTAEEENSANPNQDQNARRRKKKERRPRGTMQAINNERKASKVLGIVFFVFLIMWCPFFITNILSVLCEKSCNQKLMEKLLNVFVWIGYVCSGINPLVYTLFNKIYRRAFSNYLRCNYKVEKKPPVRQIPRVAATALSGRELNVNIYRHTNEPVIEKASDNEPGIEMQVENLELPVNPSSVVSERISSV

In assay [12] the target is Gamma-aminobutyric acid receptor subunit alpha-1/alpha-2/beta-2/gamma-2 (Homo sapiens, UniProt P14867+P18507+P47869+P47870). The assay is classed as protein-complex assay.
Also: assay procedure not described here.

Sodium-dependent noradrenaline transporter, sequence (P23975 whole entry): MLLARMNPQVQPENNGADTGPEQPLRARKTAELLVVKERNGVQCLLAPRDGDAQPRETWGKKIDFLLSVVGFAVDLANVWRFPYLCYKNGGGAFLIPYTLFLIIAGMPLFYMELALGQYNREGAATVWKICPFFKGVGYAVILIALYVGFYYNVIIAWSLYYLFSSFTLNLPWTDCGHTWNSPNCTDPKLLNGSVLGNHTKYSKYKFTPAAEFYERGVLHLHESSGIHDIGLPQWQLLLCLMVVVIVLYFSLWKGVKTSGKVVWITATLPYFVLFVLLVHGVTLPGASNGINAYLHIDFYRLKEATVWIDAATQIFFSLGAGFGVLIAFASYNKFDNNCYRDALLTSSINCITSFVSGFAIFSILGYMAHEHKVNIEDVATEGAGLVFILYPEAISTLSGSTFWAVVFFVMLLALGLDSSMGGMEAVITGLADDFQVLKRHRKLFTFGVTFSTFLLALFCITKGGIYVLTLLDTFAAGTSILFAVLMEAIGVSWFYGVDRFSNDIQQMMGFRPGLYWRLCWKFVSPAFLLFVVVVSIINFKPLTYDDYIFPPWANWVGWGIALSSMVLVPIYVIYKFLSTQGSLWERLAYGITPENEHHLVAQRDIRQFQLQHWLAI
D(3) dopamine receptor, sequence (P35462 whole entry): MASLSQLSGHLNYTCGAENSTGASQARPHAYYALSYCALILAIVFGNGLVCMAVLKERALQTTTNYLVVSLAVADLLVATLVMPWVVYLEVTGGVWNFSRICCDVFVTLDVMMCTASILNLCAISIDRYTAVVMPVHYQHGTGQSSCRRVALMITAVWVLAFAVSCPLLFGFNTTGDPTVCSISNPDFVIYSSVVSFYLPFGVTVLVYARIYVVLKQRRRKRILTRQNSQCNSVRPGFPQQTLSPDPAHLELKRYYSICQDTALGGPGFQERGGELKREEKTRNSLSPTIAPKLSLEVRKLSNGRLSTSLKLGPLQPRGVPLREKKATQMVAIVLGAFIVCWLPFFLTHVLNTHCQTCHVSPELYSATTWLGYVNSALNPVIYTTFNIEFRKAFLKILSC
Muscarinic acetylcholine receptor M3, sequence (P20309 whole entry): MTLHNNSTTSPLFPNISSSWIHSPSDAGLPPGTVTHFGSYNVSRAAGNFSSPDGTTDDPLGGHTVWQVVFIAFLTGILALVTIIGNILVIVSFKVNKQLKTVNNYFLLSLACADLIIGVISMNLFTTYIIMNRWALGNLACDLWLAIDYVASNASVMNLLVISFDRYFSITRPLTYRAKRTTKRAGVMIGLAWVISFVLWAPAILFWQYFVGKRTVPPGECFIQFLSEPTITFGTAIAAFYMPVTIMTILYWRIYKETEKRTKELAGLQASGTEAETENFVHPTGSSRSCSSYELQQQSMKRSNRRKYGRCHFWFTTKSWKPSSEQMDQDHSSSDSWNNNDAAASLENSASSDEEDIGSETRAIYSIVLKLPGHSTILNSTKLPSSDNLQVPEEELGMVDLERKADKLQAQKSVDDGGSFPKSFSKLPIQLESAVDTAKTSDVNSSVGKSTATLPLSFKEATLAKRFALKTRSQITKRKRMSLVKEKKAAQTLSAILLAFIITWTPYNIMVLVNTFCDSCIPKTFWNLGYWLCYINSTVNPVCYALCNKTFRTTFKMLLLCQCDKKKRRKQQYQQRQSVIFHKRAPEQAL

For the compound `CN(C/C=C/c1ccccc1)Cc1cccc2ccccc12` [NAFTIFINE], the AC50 (commonly the concentration at which the activity in the assay is half-maximal) was more than 30 µM in [1]; 11.1 µM in assay [2]; more than 30 µM in assay [3]; more than 10 µM in assay [4]; more than 10 µM in assay [5]; more than 30 µM in assay [6]. Moreover, the AC50 in assay [7] was more than 30 µM; in [8], more than 10 µM; in assay [9], more than 10 µM; in [10], more than 30 µM; in [11] it was more than 30 µM.
As to `CC(=O)N[C@H]1[C@H]([C@H](O)[C@H](O)CO)OC(C(=O)O)=C[C@@H]1N=C(N)N` [ZANAMIVIR], the AC50 in assay [1], in assay [2], in [3], in assay [4], in assay [5] and in assay [6] was more than 30 µM throughout. The AC50 was more than 30 µM in [8], more than 10 µM in [9], more than 30 µM in assay [10] and more than 30 µM in assay [11].
In turn, `COc1ccc2c(c1)OC(C)(C)C(c1ccccc1)C2c1ccc(OCCN2CCCC2)cc1` (stereo not drawn) [ORMELOXIFENE] came in with an AC50 in assay [12] of more than 10 µM.
Consider `COc1ccc(-c2cc(=O)c3c(O)cc(O[C@@H]4O[C@H](CO[C@@H]5O[C@@H](C)[C@H](O)[C@@H](O)[C@H]5O)[C@@H](O)[C@H](O)[C@H]4O)cc3o2)cc1O` [DIOSMIN], for which, in assay [12], the AC50 was more than 30 µM.
For `CCOc1ccc(/C=C2\NCCc3cc(OCC)c(OCC)cc32)cc1OCC` [DROTAVERINE], the AC50 in assay [12] was more than 30 µM.
Regarding `CCO[C@@H](Cc1ccc(OCCn2c(C)ccc2-c2ccc(SC)cc2)cc1)C(=O)O` [SAROGLITAZAR], the AC50 in assay [12] was more than 3 µM.
Regarding `CN(Cc1cc(Br)cc(Br)c1N)C1CCCCC1` [BROMHEXINE], in [12], the AC50 is more than 30 µM.
With `CC(C)(N)Cc1ccc(Cl)cc1` [CHLORPHENTERMINE], the AC50 in assay [1] was more than 30 µM; in assay [2] it was 13.7 µM; in assay [3], more than 30 µM; in [4] it was more than 10 µM; in [5], more than 10 µM; in [6], more than 30 µM. For the same compound, the AC50 in assay [7] was more than 30 µM; in assay [8], 14 µM; in assay [9], more than 10 µM; in [10] it was more than 30 µM; in [11] it was more than 30 µM.
With `Nc1nc(-n2cc(C(=O)O)c(=O)c3cc(F)c(N4CC(O)C4)c(Cl)c32)c(F)cc1F` [DELAFLOXACIN], the AC50 in assay [12] was more than 30 µM.
Turning to `CCN(CC)CCNc1ccc(C)c2sc3ccccc3c(=O)c12` [LUCANTHONE], in assay [12], the AC50 was more than 30 µM.
Take `CC(C)NCC1CCc2cc(CO)c([N+](=O)[O-])cc2N1` (stereo not drawn) [OXAMNIQUINE]: the AC50 was 7.4 µM in assay [1]; more than 30 µM in assay [2]; more than 30 µM in assay [3]; more than 10 µM in assay [4]; more than 10 µM in [5]; more than 30 µM in assay [7]. Moreover, the AC50 in assay [8] is more than 10 µM; in assay [9] it was more than 10 µM; in [10], more than 10 µM; in [11], more than 30 µM.
Take `CC(=O)N(CC(O)CO)c1c(I)c(C(=O)NCC(O)CO)c(I)c(C(=O)NCC(O)CO)c1I` (stereo not drawn) [IOHEXOL]: the AC50 in [1] was more than 30 µM; in assay [2], more than 30 µM; in assay [3] it was more than 30 µM; in assay [4] it was more than 10 µM; in assay [5], more than 10 µM; in assay [6], more than 30 µM. For the same compound, the AC50 in [7] is more than 30 µM; in assay [8], more than 10 µM; in assay [9] it was more than 10 µM; in [10], more than 30 µM; in [11], more than 30 µM.
Compound `C[C@@H]1C[C@H]2[C@@H]3CCC4=CC(=O)C=C[C@]4(C)[C@@]3(F)[C@@H](O)C[C@]2(C)[C@H]1C(=O)CO` [DESOXIMETASONE] displayed an AC50 in assay [12] of more than 30 µM.
`CC1=NN(c2ccccc2)C(=O)C1` [EDARAVONE] came in with an AC50 in assay [12] of more than 30 µM.
Still for that read-out and setting: under `CN1CCC2=C(C1)c1ccccc1Cc1ccccc12` [SETIPTILINE] stands more than 30 µM.
Regarding `O=C1CCC(N2C(=O)c3ccccc3C2=O)C(=O)N1` (stereo not drawn) [THALIDOMIDE], the AC50 is more than 10 µM in assay [1]; more than 10 µM in assay [2]; more than 10 µM in [4]; more than 10 µM in assay [5]; more than 30 µM in [6]; more than 30 µM in assay [7]. For the same compound, the figures for the AC50 in assay [9], in assay [10] and in [11] were more than 10 µM, more than 30 µM and more than 30 µM, respectively.
As for `COc1ccc(CCC(C)NCC(O)c2ccc(O)c([S+](C)[O-])c2)cc1` (stereo not drawn) [SULFINALOL], the AC50 in assay [12] was more than 30 µM.
Consider `CN(C)[C@@H]1C(O)=C(C(N)=O)C(=O)[C@@]2(O)C(O)=C3C(=O)c4c(O)ccc(Cl)c4[C@@H](O)[C@H]3C[C@@H]12` [DEMECLOCYCLINE], for which the AC50 in assay [1] was more than 30 µM; in assay [2], more than 10 µM; in assay [3] it was more than 30 µM; in [4], more than 10 µM; in [8], more than 10 µM; in assay [9], more than 10 µM. Besides, the AC50 in [10] is more than 10 µM; in assay [11], more than 30 µM.
Compound `CC(=O)OC(C)C[N+](C)(C)C` (stereo not drawn) [METHACHOLINE] gave an AC50 in assay [12] of more than 30 µM.
For the compound `O=C(O)CCn1c2c(c3ccccc31)C[C@H](NS(=O)(=O)c1ccc(F)cc1)CC2` [RAMATROBAN], the AC50 in assay [1] was more than 30 µM; in assay [2], more than 30 µM; in [3], more than 30 µM; in [4], more than 10 µM; in [5], more than 30 µM; in assay [6] it was more than 30 µM. Besides, the AC50 in assay [8] is more than 10 µM; in assay [9], more than 10 µM; in [10], more than 30 µM; in [11] it was more than 30 µM.
Consider `NS(=O)(=O)c1cc(Cl)c(Cl)c(S(N)(=O)=O)c1` [DICHLORPHENAMIDE], for which the AC50 in assay [1] was more than 30 µM; in assay [2] it was more than 10 µM; in assay [3], more than 30 µM; in assay [4], more than 10 µM; in assay [5] it was more than 10 µM; in assay [7], more than 30 µM. The AC50 in [8] was more than 10 µM; in assay [9], more than 10 µM; in assay [10], more than 10 µM; in assay [11], more than 30 µM.
Take `C=C1C[C@@H]2[C@H](CC[C@]3(C)C(=O)CC[C@@H]23)[C@@]2(C)C=CC(=O)C=C12` [EXEMESTANE]: the AC50 is more than 30 µM in assay [1]; more than 30 µM in [2]; more than 30 µM in assay [3]; more than 10 µM in assay [4]; more than 10 µM in assay [5]; more than 30 µM in assay [6]. In addition, the concentration at half-maximal activity (AC50) in [7] is more than 30 µM; in assay [8] it was more than 10 µM; in assay [9] it was more than 10 µM; in assay [10], more than 30 µM; in [11], more than 30 µM.
